Test results taken from US8546343B2, “Aminoglycoside antibiotics targeting bacterial 16S ribosomal RNA” (Eidgenoessische Technische Hochschule Zurich, priority 2007, dated 2013).
In brackets after ≈: the same amount, converted by molar mass.

Assays:
[1] = tested on: AG014 Staph. epi. clinical isolate; experiment: Standard MIC assay, AG014; assay type: cell-based, Staphylococcus epidermidis; conditions: for MIC: Staphylococcus epidermidis, read-out: Minimal inhibitory concentrations AG014
Description: (§1) Selected compounds of the present invention were tested for antibiotic susceptibility using clinical isolates of Staphylococci, Enterococci and Escherichia coli as well as strains carrying defined resistance determinants and compared to well known antibiotics of the state of the art. Drug susceptibility was determined in standard MIC assays, i.e. by determination of the minimal drug concentration required to inhibit bacterial growth in vitro.

[2] = tested on: AG011 Staph. aureus clinical isolate; experiment: Standard MIC assay, AG011; assay type: cell-based, Staphylococcus aureus; conditions: for MIC: Staphylococcus aureus, read-out: Minimal inhibitory concentrations AG011
Description: as §1

[3] = tested on: AG015 S. aureus BM3002 (ANT4′); experiment: Standard MIC assay, AG015; assay type: cell-based, Staphylococcus aureus; conditions: for MIC: Staphylococcus aureus, read-out: Minimal inhibitory concentrations AG015
Description: as §1

[4] = tested on: M. smegmatis ΔrrnB 1408G (16S rRNA position 1408 G, eukaryotic cytosolic ribosomes); experiment: MIC, recombinant M. smegmatis with mutant ribosomes 1408G; assay type: cell-based, Mycobacterium smegmatis; conditions: M. smegmatis ΔrrnB 1408G mutant ribosomes; 72 h at 37° C.
Description: (§2) The strain used for introduction/selection of mutational alterations was a genetically modified derivative of Mycobacterium smegmatis carrying a single functional chromosomal rRNA operon (Sander et al. Mol. Microbiol. 1996, 22: 841-848). This strain, termed M. smegmatis rrn^−, allowed for the selection of mutational rRNA gene alterations using a plasmid carrying the rRNA gene with the respective mutational alteration.)
(§3) The rRNA gene carried on the plasmid encodes either the complete rRNA operon (Prammananan et al. Antimicrob. Agents Chemother. 1999, 43: 447-453) or a non-functional rRNA gene fragment of approximately 1.0 kb (Pfister et al. Antimicrob. Agents Chemother. 2003, 47: 1496-1502). PCR-mutagenesis in vitro was used to generate the mutagenized rRNA gene fragment. In the case of a partial rRNA gene fragment the mutagenized rRNA gene fragment was cloned into vectors pMV261 or pMV361 (Sander et al. Mol. Microbiol. 2002, 46: 1295-1304; Pfister et al. Antimicrob. Agents Chemother. 2003, 47: 1496-1502) to result in vectors carrying a partial rRNA gene fragment of approximately 1.0 kb with the mutational alteration introduced. In the case of plasmids carrying the complete rRNA operon the mutagenized rRNA gene fragment obtained by PCR was cloned into vectors pMV361 rRNA or pMV261 rRNA using appropriate restriction sites (Prammananan et al. Antimicrob. Agents Chemother. 1999, 43: 447-453). Vectors pMV361 rRNA and pMV261 rRNA carried a complete copy of the rRNA operon from M. smegmatis (Sander et al. Mol. Microbiol. 1997, 26: 469-480). Introduction of mutations into the plasmid encoded rRNA was confirmed by sequencing.
(§4) The single rRNA allelic derivative of M. smegmatis, i.e. M. smegmatis rrn, was used for transformation of the plasmids. The strain was made electro-competent and transformed according to standard techniques and as described previously (Sander et al. Mol. Microbiol. 1997, 26: 469-484). Following primary selection, the plasmid-encoded mutational rRNA gene alteration was transferred into the single chromosomal rRNA operon by means of RecA-mediated homologous recombination (Prammananan at al. Antimicrob. Agents Chemother. 1999, 43: 447-453). Introduction of the mutational rRNA gene alteration into the single functional chromosomal rRNA operon by gene conversion was confirmed by sequence determination.
(§5) Ribosomal drug susceptibility was studied by determining the minimal inhibitory concentrations, as described in detail in Pfister et al. 2003 and 2005 (see above).
(§6) The recombinants carrying the respective mutational alterations in the functional rRNA operon were colony-purified and subjected to determinations of minimal inhibitory concentrations (MIC) to determine ribosomal drug susceptibility. Cultures from single colonies were grown in LB medium supplemented with 0.05% Tween 80 and used for MIC tests in a microtiter plate format. Starting cultures contained 200 μl of bacterial cells at an optical density of 0.025 at 600 nm, and the respective drug was added in twofold series of dilution.
(§7) Key nucleotides which distinguish the prokaryotic from the eukaryotic decoding site are 16S rRNA positions 1408 (bacterial ribosome: A, eukaryotic cytosolic ribosomes: G) and 1491 (bacterial ribosomes: G, eukaryotic cytosolic ribosomes: A, eukaryotic mitochondrial ribosome: C).

AG017 E. faecalis JH2-2 = experiment: Standard MIC assay, AG017; assay type: cell-based, Enterococcus faecalis; conditions: for MIC: Enterococcus faecalis, read-out: Minimal inhibitory concentrations AG017
Description: as §1

[5] = tested on: M. smegmatis ΔrrnB 1491A (16S rRNA position 1491 A, eukaryotic cytosolic ribosomes); experiment: MIC, recombinant M. smegmatis with mutant ribosomes 1491A; assay type: cell-based, Mycobacterium smegmatis; conditions: M. smegmatis ΔrrnB 1491A mutant ribosomes; 72 h at 37° C.
Description: as §2, §3, §4, §5, §6, §7

AG016 S. aureus BM3002 = experiment: Standard MIC assay, AG016; assay type: cell-based, Staphylococcus aureus; conditions: for MIC: Staphylococcus aureus, read-out: Minimal inhibitory concentrations AG016
Description: as §1

[6] = tested on: AG019 E. faecalis JH2-2 (APH2″ AAC6′); experiment: Standard MIC assay, AG019; assay type: cell-based, Enterococcus faecalis; conditions: for MIC: Enterococcus faecalis, read-out: Minimal inhibitory concentrations AG019
Description: as §1

[7] = tested on: M. smegmatis ΔrrnB (bacterial ribosomes); experiment: MIC, recombinant M. smegmatis with bacterial (wild-type) ribosomes; assay type: cell-based, Mycobacterium smegmatis; conditions: 72 h at 37° C.
Description: as §2, §3, §4, §5, §6, §7

[8] = tested on: AG013 Staph. epi. clinical isolate; experiment: Standard MIC assay, AG013; assay type: cell-based, Staphylococcus epidermidis; conditions: for MIC: Staphylococcus epidermidis, read-out: Minimal inhibitory concentrations AG013
Description: as §1

[9] = tested on: M. smegmatis ΔrrnB 1491C (16S rRNA position 1491 C, eukaryotic mitochondrial ribosome); experiment: MIC, recombinant M. smegmatis with mutant ribosomes 1491C; assay type: cell-based, Mycobacterium smegmatis; conditions: M. smegmatis ΔrrnB 1491C mutant ribosomes; 72 h at 37° C.
Description: as §2, §3, §4, §5, §6, §7

[10] = tested on: AG002 E. coli clinical isolate; experiment: Standard MIC assay, AG002; assay type: cell-based, Escherichia coli; conditions: Escherichia coli, read-out: Minimal inhibitory concentrations AG002
Description: as §1

AG006 E. coli BM13 = experiment: Standard MIC assay, AG006; assay type: cell-based, Escherichia coli; conditions: Escherichia coli, read-out: Minimal inhibitory concentrations AG006
Description: as §1

[11] = tested on: AG009 E. coli BM13 AAC(6′)-1B; experiment: Standard MIC assay, AG009; assay type: cell-based, Escherichia coli; conditions: Escherichia coli, read-out: Minimal inhibitory concentrations AG009
Description: as §1

[12] = tested on: AG007 E. coli BM13 (AAC3); experiment: Standard MIC assay, AG007; assay type: cell-based, Escherichia coli; conditions: Escherichia coli, read-out: Minimal inhibitory concentrations AG007
Description: as §1

[13] = tested on: AG004 E. coli clinical isolate; experiment: Standard MIC assay, AG004; assay type: cell-based, Escherichia coli; conditions: Escherichia coli, read-out: Minimal inhibitory concentrations AG004
Description: as §1

[14] = tested on: AG003 E. coli clinical isolate; experiment: Standard MIC assay, AG003; assay type: cell-based, Escherichia coli; conditions: Escherichia coli, read-out: Minimal inhibitory concentrations AG003
Description: as §1

[15] = tested on: AG001 E. coli clinical isolate; experiment: Standard MIC assay, AG001; assay type: cell-based, Escherichia coli; conditions: Escherichia coli, read-out: Minimal inhibitory concentrations AG001
Description: as §1

Question: `NC[C@@H]1O[C@H](O[C@H]2[C@@H](O)[C@H](O[C@@H]3[C@@H](O)[C@H](N)C[C@H](N)[C@H]3O[C@H]3O[C@H](CO)[C@@H](O)[C@H](O)[C@H]3N)O[C@@H]2CO)[C@H](N)[C@@H](O)[C@@H]1O` [Paromomycin, paromomycin, reference compound] was tested. Which MIC [1] did it give?
Answer: The MIC was at least 256 µg/mL.

Question: What about the MIC [2] of the same compound?
Answer: Its MIC is 8 µg/mL (≈ 13 µM).

Question: And the MIC [3]?
Answer: The MIC was over 256 µg/mL.

Question: And the “minimal inhibitory concentrations ΔrrnB 1408G” value [4]?
Answer: Its value is 64 µg/mL.

Question: And the MIC (AG017 E. faecalis JH2-2)?
Answer: Its MIC is 128 to 256 µg/mL (≈ 208 to 416 µM).

Question: And the “minimal inhibitory concentrations ΔrrnB 1491A” value [5]?
Answer: The value was 64 µg/mL.

Question: And the MIC (AG016 S. aureus BM3002)?
Answer: The MIC was 2 to 4 µg/mL (≈ 3.25 to 6.5 µM).

Question: What about the MIC [6] of the same compound?
Answer: The MIC was over 256 µg/mL.

Question: What about the “minimal inhibitory concentrations ΔrrnB” value [7] of the same compound?
Answer: Its value is 1 µg/mL.

Question: And the MIC [8]?
Answer: The MIC was at least 256 µg/mL.

Question: And the “minimal inhibitory concentrations ΔrrnB 1491C” value [9]?
Answer: The value was “≧512 μg/ml”.

Question: Which results are given for `NC[C@H]1O[C@H](O[C@H]2[C@H](O)[C@@H](O[C@H]3O[C@H](CO)[C@@H](O)[C@H](N)[C@H]3O)[C@H](N)C[C@@H]2N)[C@H](N)C[C@@H]1O` [Tobramycin, reference compound]?
Answer: MIC [1]: 256 µg/mL (≈ 548 µM); MIC [10]: 4 µg/mL (≈ 8.56 µM); MIC [2]: 8 µg/mL (≈ 17.1 µM); MIC (AG006 E. coli BM13): 2 µg/mL (≈ 4.28 µM); MIC [11]: 128 to 256 µg/mL (≈ 274 to 548 µM); MIC [3]: ≥ 256 µg/mL; MIC (AG017 E. faecalis JH2-2): 16 to 32 µg/mL (≈ 34.2 to 68.4 µM); MIC [12]: 8 µg/mL (≈ 17.1 µM); MIC (AG016 S. aureus BM3002): 0.5 to 1 µg/mL (≈ 1.07 to 2.14 µM); MIC [6]: > 256 µg/mL; MIC [13]: 64 µg/mL (≈ 137 µM); MIC [8]: ≥ 256 µg/mL; MIC [14]: 32 µg/mL (≈ 68.4 µM); MIC [15]: 4 µg/mL (≈ 8.56 µM)

Question: Which “Minimal inhibitory concentrations AG014” value [1] does the source give for Neomycin [reference compound] here?
Answer: Its value is 32 µg/mL.

Question: And the “Minimal inhibitory concentrations AG011” value [2]?
Answer: The value was 4 µg/mL.

Question: And the “Minimal inhibitory concentrations AG015” value ([3]; S. aureus BM3002 (ANT4′))?
Answer: The value was 128 µg/mL.

Question: And the “Minimal inhibitory concentrations AG017” value (AG017 E. faecalis JH2-2)?
Answer: The value was 64 µg/mL.

Question: What about the “Minimal inhibitory concentrations AG016” value (AG016 S. aureus BM3002) of the same compound?
Answer: The value was 1 to 2 µg/mL.

Question: And the “Minimal inhibitory concentrations AG019” value ([6]; E. faecalis JH2-2 (APH2″ AAC6′))?
Answer: Its value is over 256 µg/mL.

Question: And the “Minimal inhibitory concentrations AG013” value [8]?
Answer: Its value is 64 to 128 µg/mL.
